Some results are limits rather than exact numbers.

The target of this experiment is GCN2 (Homo sapiens, UniProt Q9P2K8). The experiment is described as follows: GCN2 enzyme assay (TR-FRET Lanthascreen, GFP-eIF2alpha phosphorylation). The class given is biochemical. The settings on record: 10 μM ATP, 80 nM GFP-eIF2a, 30 nM GCN2. The text has this: GCN2: Assay Principle & Conditions
GCN2, sequence (Q9P2K8 whole entry, species assumed): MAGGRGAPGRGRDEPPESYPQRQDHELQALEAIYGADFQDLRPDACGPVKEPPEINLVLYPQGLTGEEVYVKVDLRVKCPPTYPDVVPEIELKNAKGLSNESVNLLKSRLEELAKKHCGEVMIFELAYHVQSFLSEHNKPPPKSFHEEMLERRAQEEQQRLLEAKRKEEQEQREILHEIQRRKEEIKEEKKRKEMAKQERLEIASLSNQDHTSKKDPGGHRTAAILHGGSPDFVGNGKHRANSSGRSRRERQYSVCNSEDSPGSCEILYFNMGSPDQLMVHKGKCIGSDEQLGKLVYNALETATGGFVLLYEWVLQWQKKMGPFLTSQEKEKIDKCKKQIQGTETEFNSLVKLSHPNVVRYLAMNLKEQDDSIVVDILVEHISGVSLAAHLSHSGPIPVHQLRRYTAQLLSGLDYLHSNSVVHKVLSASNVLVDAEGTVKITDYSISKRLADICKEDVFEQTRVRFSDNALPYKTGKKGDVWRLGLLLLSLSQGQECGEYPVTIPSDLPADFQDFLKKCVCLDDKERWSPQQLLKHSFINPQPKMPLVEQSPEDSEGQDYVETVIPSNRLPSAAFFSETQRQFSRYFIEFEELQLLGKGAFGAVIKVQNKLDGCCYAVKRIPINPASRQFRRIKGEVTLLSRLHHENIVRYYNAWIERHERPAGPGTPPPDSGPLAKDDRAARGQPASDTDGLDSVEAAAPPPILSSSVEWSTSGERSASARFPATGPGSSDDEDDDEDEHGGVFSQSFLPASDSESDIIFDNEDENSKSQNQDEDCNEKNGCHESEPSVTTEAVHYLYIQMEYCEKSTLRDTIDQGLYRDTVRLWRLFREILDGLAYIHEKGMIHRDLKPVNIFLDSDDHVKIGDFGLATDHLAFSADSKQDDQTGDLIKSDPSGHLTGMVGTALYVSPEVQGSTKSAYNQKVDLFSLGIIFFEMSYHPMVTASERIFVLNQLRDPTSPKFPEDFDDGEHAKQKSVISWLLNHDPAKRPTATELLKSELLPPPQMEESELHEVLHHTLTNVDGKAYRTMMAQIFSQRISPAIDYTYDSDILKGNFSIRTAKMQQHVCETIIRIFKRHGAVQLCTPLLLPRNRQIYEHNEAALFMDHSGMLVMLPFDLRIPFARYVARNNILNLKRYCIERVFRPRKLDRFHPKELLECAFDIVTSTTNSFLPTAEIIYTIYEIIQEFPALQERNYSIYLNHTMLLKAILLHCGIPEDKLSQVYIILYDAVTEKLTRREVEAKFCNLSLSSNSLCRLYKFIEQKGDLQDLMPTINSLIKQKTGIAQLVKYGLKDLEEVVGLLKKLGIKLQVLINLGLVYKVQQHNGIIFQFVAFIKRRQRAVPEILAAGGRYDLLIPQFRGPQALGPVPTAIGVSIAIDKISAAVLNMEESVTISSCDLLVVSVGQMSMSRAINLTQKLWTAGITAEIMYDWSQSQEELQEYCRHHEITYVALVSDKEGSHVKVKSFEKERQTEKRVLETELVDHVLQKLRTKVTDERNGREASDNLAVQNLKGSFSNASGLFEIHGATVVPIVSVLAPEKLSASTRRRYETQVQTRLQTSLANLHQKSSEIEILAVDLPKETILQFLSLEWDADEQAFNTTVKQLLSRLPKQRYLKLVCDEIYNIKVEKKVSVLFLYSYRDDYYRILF
This assay can quantificate the activity of the serin kinase GCN2 (general control non-derepressible-2).
This kinase is involved in the stress metabolism of cells. It is activated upon starvation (amino acid depletion). Its natural substrate is eIF2a (eukaryotic initiation factor 2 alpha subunit), a translation factor, which gets activated (phosphorylated) by GCN2 in case of an amino acid bottleneck in the cells. This in turn leads to a halt of the protein synthesis. Inhibition of GCN2 results in stopping this mechanism: The cell can not stop protein production upon “starvation” stress.
The assay is run in two steps: the enzymatic reaction and the detection step. In the first step GCN2 is incubated with 10 μM ATP and 80 nM of the GFP-labelled substrate eIF2alpha at room temperature.
The enzymatic reaction is stopped by addition of EDTA. The amount of phosphorylated eIF2alpha is determined by TR-FRET (Lanthascreen): A complex is formed consisting of antibody and GFP labelled phospho-eIF2a, which allows a FRET upon exitation at 340 nm.
Final Concentrations in the Enzymatic Reaction
A general note: Time-resolved FRET reads energy transfer from a long-lived donor to a nearby acceptor.
As to `COc1ccc(-n2nnc3cnc(N[C@@H]4CC[C@@H](O)C4)nc32)cc1` (racemic) [A10, trans-3-[3-(4-methoxy-phenyl)-3H-[1,2,3]triazolo[4,5-d]pyrimidin-5-ylamino]-cyclopentanol], the IC50 is below 1000 nM.

The compound `COc1ccc(-n2nnc3cnc(N[C@H]4CC[C@H](NC(=O)OC(C)(C)C)C4)nc32)cc1` (racemic) [A35, {trans-3-[3-(4-methoxy-phenyl)-3H-[1,2,3]triazolo[4,5-d]pyrimidin-5-ylamino]-cyclopentyl}-carbamic acid tert-butyl ester] displayed an IC50 of 5000 to 10000 nM.

The compound `COc1ccc(-n2nnc3cnc(N[C@H]4CC[C@@H](O)C4)nc32)cc1` (relative stereo) [A27, cis-3-[3-(4-methoxy-phenyl)-3H-[1,2,3]triazolo[4,5-d]pyrimidin-5-ylamino]-cyclopentanol] had an IC50 of 1000 to 5000 nM.

`O[C@@H]1CC[C@@H](Nc2ncc3nnn(-c4ccc(Br)cc4)c3n2)C1` (relative stereo) [A29, trans-3-[3-(4-bromo-phenyl)-3H-[1,2,3]triazolo[4,5-d]pyrimidin-5-ylamino]cyclopentanol] had an IC50 below 1000 nM.

Turning to `COc1ccc(-n2nnc3cnc(N[C@@H]4CC[C@](O)(C(F)(F)F)C4)nc32)cc1` (relative stereo) [A67, trans-3-[3-(4-methoxy-phenyl)-3H-[1,2,3]triazolo[4,5-d]pyrimidin-5-ylamino]-1-trifluoromethyl-cyclopentanol], the IC50 lay in the range of 1000 to 5000 nM.

Take `Cn1cc(-c2ccc(-n3nnc4cnc(N[C@H]5CC[C@H](O)C5)nc43)nc2)cn1` (relative stereo) [A94, trans-3-{3-[5-(1-methyl-1H-pyrazol-4-yl)-pyridin-2-yl]-3H-[1,2,3]triazolo[4,5-d]pyrimidin-5-ylamino}-cyclopentanol]: the IC50 was below 1000 nM.

`COc1ccc(-n2nnc3cnc(N[C@H]4CC[C@@H](N(C)C)C4)nc32)cc1` (relative stereo) [A108, (cis)-N-[3-(4-methoxy-phenyl)-3H-[1,2,3]triazolo[4,5-d]pyrimidin-5-yl]-N′,N′-dimethyl-cyclopentane-1,3-diamine] came in with an IC50 below 1000 nM.

Compound `COc1ccc(-n2nnc3cnc(N[C@@H]4CC[C@H](CNC(=O)OC(C)(C)C)C4)nc32)cc1` (relative stereo) [A117, {(cis)-3-[3-(4-methoxy-phenyl)-3H-[1,2,3]triazolo[4,5-d]pyrimidin-5-ylamino]-cyclopentylmethyl}-carbamic acid tert-butyl ester] gave an IC50 below 1000 nM.

In the case of `COCCn1cc(-n2nnc3cnc(N[C@@H]4CCC[C@@H](C(N)=O)C4)nc32)cn1` (relative stereo) [A165, (trans)-3-{3-[1-(2-methoxy-ethyl)-1H-pyrazol-4-yl]-3H-[1,2,3]triazolo[4,5-d]pyrimidin-5-ylamino}-cyclohexanecarboxylic acid amide], the IC50 was 1000 to 5000 nM.

`CCOc1ccc(-n2nnc3cnc(N[C@@H]4CC[C@@H](O)C4)nc32)cn1` (relative stereo) [A206, (trans)-3-[3-(6-ethoxy-pyridin-3-yl)-3H-[1,2,3]triazolo[4,5-d]pyrimidin-5-ylamino]-cyclopentanol]: the IC50 is below 1000 nM.

As for `COCCn1cc(-c2ccc(-n3nnc4cnc(N[C@H]5CC[C@H](O)C5)nc43)cn2)cn1` (relative stereo) [A234, (trans)-3-(3-{6-[1-(2-methoxy-ethyl)-1H-pyrazol-4-yl]-pyridin-3-yl}-3H-[1,2,3]triazolo[4,5-d]pyrimidin-5-ylamino)-cyclopentanol], the IC50 was below 1000 nM.

Consider `COc1ccc(-n2nnc3cnc(N[C@H]4CC[C@H](SC)C4)nc32)cc1` (relative stereo) [A262, [3-(4-methoxy-phenyl)-3H-[1,2,3]triazolo[4,5-d]pyrimidin-5-yl]-((trans)-3-methylsulfanyl-cyclopentyl)-amine], for which the half-inhibitory concentration (IC50) is below 1000 nM.

For orientation: IC50 means the concentration needed to halve the response being measured.

Source of the values: patent US9855268B2, “Triazolo[4,5-d]pyrimidine derivatives” (Merck Patent GmbH, priority 2013, dated 2018).
